This note sets out measurements from article PMC10065799, “High-throughput profiling of sequence recognition by tyrosine kinases and SH2 domains using bacterial peptide display” (eLife, 2023).

In test [1] the target is T1, c-Abl kinase domain (Mus musculus, UniProt P00520).
T1 sequence (P00520 242-493 limits assumed): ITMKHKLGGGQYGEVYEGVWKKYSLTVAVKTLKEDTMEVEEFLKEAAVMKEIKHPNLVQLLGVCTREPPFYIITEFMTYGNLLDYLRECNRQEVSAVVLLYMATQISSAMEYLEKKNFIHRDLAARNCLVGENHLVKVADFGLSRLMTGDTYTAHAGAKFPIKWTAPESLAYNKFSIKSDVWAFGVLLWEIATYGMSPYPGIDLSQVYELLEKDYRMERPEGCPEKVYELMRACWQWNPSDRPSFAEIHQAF
The experiment in a line: pTyr-Var library bacterial peptide display kinase screen (enrichment scores).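 Note: log2 fold change in enrichment of variant over reference.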 It is filed as biochemical. Particulars: fig5-data2, sheet "Abl"; Screen for the variant/reference peptide pair, pTyr-Var library.

For test [2], the system named is EPHB2 kinase domain. The description is as above. Type of test: biochemical, human. Particulars: sheet EPHB2; effect of variant peptide relative to its reference peptide in the pTyr-Var library screen (enrichment scores).
In test [3] the test system is Fer kinase domain. The test is described as above. It is filed as biochemical, mouse. Particulars: sheet "Fer"; value of the variant peptide against its reference peptide in the pTyr-Var library screen with Fer.
Test [4] has as its target T2, c-Src kinase domain (Homo sapiens, UniProt P12931). The test is described as above. It is filed as biochemical. Particulars: sheet "Src".
The subject of test [5] is EPHB1 kinase domain. Described as above. Type of test: biochemical, human. Particulars: sheet EPHB1; effect of the variant peptide relative to its reference peptide in the pTyr-Var library screen (enrichment scores).
Test [6] concerns the target T2, c-Src kinase domain. The experiment in a line: ADP-Quest continuous fluorimetric kinase assay (Michaelis-Menten parameters and initial rates). Particulars: c-Src kinase domain 10 nM, 100 μM ATP, 37 °C, three to five replicates, error = standard error of global Michaelis-Menten fit. Type of test: biochemical. The text has this:
A fluorescence-based assay from Eurofins (ADP Quest) was used to measure the Michaelis-Menten kinetic parameters for phosphorylation of the consensus peptides by purified tyrosine kinase domains. In this assay, ADP production as a result of kinase activity is coupled to the production of resorufin, a fluorophore that emits signal at 590 nm. For all experiments, the assay reactions were set up as described in the provided assay kit protocol, in a 384 well plate format. The peptide solutions were serially diluted in 100 mM Tris, pH 8.0, and the kinases were diluted to 50 nM in buffer (10 mM HEPES, 100 mM NaCl, 1 mM TCEP, 5 mM MgCl2, 10% (v/v) glycerol). The final reaction mixtures contained 10 nM of kinase with 100 μM of ATP. […] Phosphorylation reaction progress was monitored by measuring fluorescence at excitation 530 nm and emission 590 nm every 2 min at 37 °C on a plate reader (BioTek Synergy Neo 2). The fluorescence units (RFU) were converted to μM ADP by comparison to a standard curve, and the initial rates were extracted from the linear regime of the reaction progress curves. Initial rates were also measured for samples containing each kinase but lacking a peptide substrate, to account for background ATP hydrolysis. This background rate was subtracted from the rates measured in the presence of peptide. […]

Where [7] appears, read: effect of the variant peptide relative to its reference peptide in the pTyr-Var library screen.
Where [8] appears, read: variant peptide versus its reference peptide in the pTyr-Var library screen.

FSMGCYEIFLG [HMGCL_Y198_S201Y_YF]: the Screen in test [1] worked out at 0.9187; in test [2], 0.8942; in test [3], 1.084; in test [4] (setting [7]), 1.946; in test [5] it was 0.9243.
In general, Km refers to the concentration of substrate that gives half-maximal velocity. Regarding “Ac-GAEEEIYGEFEAKKKG-NH2 [SrcTide (1995), previously reported c-Src consensus substrate (Songyang et al., 1995)]”, in test [6], the Km came to 64 ± 10 µM and the kcat came out at 3.1±0.2 s^–1.
In the case of IKRIDYEFVEM [ADA_Y84_A83D], the Screen is 0.5744 in test [1], 2.863 in test [2], -0.7273 in test [3] and 3.957 in test [5].
For SSSAIYDNPDL [DCP1B_Y191_N195D], the Screen is reported as 1.925 in test [1]; -0.486 in test [2]; -0.4908 in test [3]; -1.087 in test [4] (setting [7]); -0.6114 in test [5].
Consider GTSLIYWILFT [G6PC3_Y214_T216I], for which the Screen was -1.51 in test [2], -1.528 in test [3], -1.381 in test [4] (setting [7]) and -1.942 in test [5].
For the substance SEPDLYFDPRG [PKP1_Y160_C161Y_YF], the Screen is reported as 1.913 in test [2], -1.5 in test [3], 1.044 in test [4] (setting [8]) and 1.592 in test [5].
On to SRDPFYEMLTA [CYTH1_Y382_A386T], for which the Screen in test [2] is on record as 0.7334; in test [3], -0.1692; in test [4] (setting [7]), 0.1014; in test [5], 0.4954.
For TLSGTYQFIIA [FOXL2_Y81_I80T_YF], in that order: -3.51, -3.428, -2.746 and -3.534.
Regarding RTVPLYESLRK [DDB1_Y718_P721L], the Screen in test [2] is on record as -0.0735; in test [3], -0.4469; in test [4] (setting [7]) it was 1.169; in test [5], 0.1495.
AVISVYDLVVV [PSEN1_Y256_A260V]: the Screen in test [2] is on record as -0.3059; in test [3] it was 0.009469; in test [4] (setting [8]), -0.2228; in test [5], -0.1318.
For VKANTYENFWP [GATM_Y100_K102N_YF], the Screen in test [2] was determined as 2.516; in test [3], 1.784; in test [4] (setting [7]), 0.5982; in test [5], 2.281.
In the same order, the values of QMVGMYASFFM [AVPR2_Y124_S127F_YF] are 1.338, 2.583, 2.334 and 1.725.
